According to ChEMBL document CHEMBL6114985, “From Dyrk1A inhibitors to a novel class of antiviral agents: Targeting Enterovirus EV-A71 with 2-aryl-substituted thiophene scaffolds” (Eur J Med Chem, 2025):
The source made the active and inactive calls. The calls are words filed in the database; no cut-off is given here.

Key:
[1] = Selectivity index, ratio of CC50 for human RD cells to EC50 for antiviral activity against enterovirus A71 TW/2231/98 infected in human RD cells; type: toxicity, cell-based; conditions: read-out: Ratio CC50/EC50
[2] = tested on: Herpes Simplexvirus; experiment: microbe, parasite or virus in culture; conditions: A549
[3] = tested on: Human adenovirus sp.; experiment: microbe, parasite or virus in culture; conditions: A549
[4] = tested on: Enterovirus A71; experiment: Antiviral activity against Enterovirus A71 TW/2231/98 infected in human RD cells assessed as effect on viral RNA level at 10 uM preincubated with cells at 1 hr followed by compound addition and measured at 0 to 3 hrs post infection by time of addition based RT-qPCR analysis; type: functional, organism-based
[5] = Cytotoxicity against human A549 cells infected with Herpes Simplexvirus; type: toxicity, cell-based; conditions: A549 cells infected with herpes simplex virus
[6] = tested on: Enterovirus A71; experiment: Antiviral activity against Enterovirus A71 TW/2231/98 infected in human RD cells assessed as effect on viral protein level at 10 uM preincubated with cells at 1 hr followed by compound addition and measured at 0 to 3 hrs post infection by time of addition based immunoblotting analysis; type: functional, organism-based
[7] = tested on: Enterovirus A71; experiment: Antiviral activity against Enterovirus A71 TW/2231/98 infected in human RD cells assessed as effect on viral replication incubated for 3 to 5 days by crystal violet staining based plaque reduction assay; type: functional, organism-based; conditions: time 3-5 day
[8] = Metabolic stability in mouse liver microsome assessed as half life incubated for 120 mins by HPLC-MS/MS; type: ADME; conditions: liver microsomes
[9] = Metabolic stability in human liver microsome assessed as half life incubated for 120 mins by HPLC-MS/MS; type: ADME; conditions: liver microsomes
[10] = tested on: enterovirus D68; experiment: Antiviral activity against Enterovirus D68 KY 18953 assessed as reduction in viral replication; type: functional, organism-based; conditions: Enterovirus D
[11] = target: T1, Dual specificity tyrosine-phosphorylation-regulated kinase 1A (Homo sapiens, UniProt Q13627); experiment: Inhibition of DYRK1A (unknown origin) at 25 uM incubated for 1 hr relative to control
[12] = tested on: Enterovirus A71; experiment: Antiviral activity against Enterovirus A71 TW/2231/98 infected in human RD cells assessed as reduction in viral protein level at 10 uM preincubated with cells at 1 hr followed by compound addition and measured after 9 hrs post infection by time of addition based immunoblotting analysis; type: functional, organism-based
[13] = Lipophilicity, logD of compound by UPLC-MS analysis; type: physicochemical; conditions: octanol/water
[14] = tested on: Enterovirus A71; experiment: Antiviral activity against Enterovirus A71 TW/2231/98 infected in human RD cells assessed as inhibition of viral plaque formation at 2.5 uM incubated for 3 to 5 days by crystal violet staining based plaque reduction assay relative to control; type: functional; conditions: Enterovirus A, TW/2231/98, RD, time 3-5 day
[15] = Cytotoxicity against human RD cells assessed as reduction in cell growth incubated for 3 days by MTT assay; type: toxicity, cell-based; conditions: time 3 day
[16] = tested on: Enterovirus A71; experiment: Antiviral activity against Enterovirus A71 2231 assessed as reduction in viral replication; type: functional, organism-based; conditions: Enterovirus A
[17] = tested on: Influenza A virus; experiment: Antiviral activity against influenza A virus assessed as reduction in viral replication; type: functional, organism-based
[18] = in vitro; conditions: human, A549 cells
[19] = Metabolic stability in mouse liver microsome assessed as intrinsic clearance incubated for 120 mins by HPLC-MS/MS; type: ADME; conditions: liver microsomes, read-out: CLH
[20] = Stability in human plasma assessed as half life by HPLC-MS/MS; type: ADME, cell-free
[21] = tested on: Enterovirus A71; experiment: Antiviral activity against Enterovirus A71 TW/2231/98 infected in human RD cells assessed as reduction in cytopathic effect incubated for 3 days; type: functional, organism-based; conditions: Enterovirus A, TW/2231/98, RD, 72 h
[22] = tested on: Herpes Simplexvirus; experiment: Antiviral activity against Herpes Simplexvirus infected in human A549 cells assessed as inhibition of viral replication at 0.95 uM relative to control; type: functional
[23] = tested on: Enterovirus A71; experiment: Antiviral activity against Enterovirus A71 TW/2231/98 infected in human RD cells assessed as effect on viral titer at 10 uM preincubated with cells at 1 hr followed by compound addition and measured at 0 to 3 hrs post infection by time of addition based plaque assay; type: functional, organism-based
[24] = tested on: Enterovirus A71; experiment: Antiviral activity against Enterovirus A71 TW/2231/98 infected in human RD cells assessed as inhibition of viral plaque formation at 5 uM incubated for 3 to 5 days by crystal violet staining based plaque reduction assay relative to control; type: functional; conditions: Enterovirus A, TW/2231/98, RD, time 3-5 day
[25] = target: T1, Dual specificity tyrosine-phosphorylation-regulated kinase 1A; experiment: Inhibition of DYRK1A (unknown origin)
[26] = Stability in mouse plasma assessed as half life by HPLC-MS/MS; type: ADME, cell-free
[27] = tested on: Enterovirus A71; experiment: Antiviral activity against Enterovirus A71 TW/2231/98 infected in human RD cells assessed as reduction in viral titer at 10 uM preincubated with cells at 1 hr followed by compound addition and measured after 9 hrs post infection by time of addition based plaque assay; type: functional, organism-based
[28] = tested on: Enterovirus A71; experiment: Antiviral activity against Enterovirus A71 TW/2231/98 infected in human RD cells assessed as inhibition of viral plaque formation at 1.25 uM incubated for 3 to 5 days by crystal violet staining based plaque reduction assay relative to control; type: functional; conditions: Enterovirus A, TW/2231/98, RD, time 3-5 day
[29] = tested on: enterovirus D68; experiment: Antiviral activity against Enterovirus D68 2795 assessed as reduction in viral replication; type: functional, organism-based; conditions: Enterovirus D
[30] = tested on: Enterovirus A71; experiment: Antiviral activity against Enterovirus A71 4798 assessed as reduction in viral replication; type: functional, organism-based; conditions: Enterovirus A
[31] = tested on: Human rhinovirus sp.; experiment: Antiviral activity against Human rhinovirus 71803 assessed as reduction in viral replication; type: functional, organism-based
[32] = tested on: Enterovirus A71; experiment: Antiviral activity against Enterovirus A71 TW/2231/98 infected in human RD cells assessed as reduction in viral RNA level at 10 uM preincubated with cells at 1 hr followed by compound addition and measured after 9 hrs post infection by time of addition based RT-qPCR analysis; type: functional, organism-based
[33] = tested on: Coxsackievirus; experiment: Antiviral activity against Coxsackievirus assessed as reduction in viral replication; type: functional, organism-based
[34] = Cytotoxicity against human A549 cells infected with Human adenovirus; type: toxicity, cell-based
[35] = Metabolic stability in human liver microsome assessed as intrinsic clearance incubated for 120 mins by HPLC-MS/MS; type: ADME; conditions: liver microsomes, read-out: CLH

Q: With COc1ccc(F)c(C(=O)Nc2cncc(-c3cc(-c4cccnc4)cs3)c2)c1 as the compound, how does the selectivity ratio [1] read?
A: Its selectivity ratio is 2.9.

Q: What about the EC50 [2] of the same compound?
A: The EC50 was 1000 nM.

Q: And the EC50 [3]?
A: The EC50 was > 10 µM.

Q: What about the Activity [4] of the same compound?
A: Its Activity is “inactive”.

Q: And the CC50 [5]?
A: The CC50 was > 15 µM.

Q: What about the Activity [6] of the same compound?
A: Its Activity is “inactive”.

Q: What about the Activity [7] of the same compound?
A: Its Activity is “Active”.

Q: What about the half-life [8] of the same compound?
A: The half-life was 14 min.

Q: What about the half-life [9] of the same compound?
A: Its half-life is 55 min.

Q: What about the EC50 [10] of the same compound?
A: Its EC50 is 3.4 µM.

Q: And the inhibition [11]?
A: The inhibition was 95%.

Q: And the Activity [12]?
A: The Activity was “Active”.

Q: What about the logD [13] of the same compound?
A: Its logD is 3.44.

Q: And the inhibition at 2.5 µM [14]?
A: The inhibition at 2.5 µM was ~60%.

Q: And the CC50 at 72 h [15]?
A: The CC50 at 72 h was 12.8 µM.

Q: What about the EC50 [16] of the same compound?
A: Its EC50 is 4.4 µM.

Q: And the EC50 [17]?
A: The EC50 was > 10 µM.

Q: And the selectivity ratio [18]?
A: Its selectivity ratio is > 15.

Q: What about the microsomal CLint [19] of the same compound?
A: Its microsomal CLint is 104 µL/min/mg.

Q: And the half-life [20]?
A: Its half-life is > 240 min.

Q: And the EC50 [21]?
A: Its EC50 is 4.4 µM.

Q: What about the inhibition at 0.95 µM [22] of the same compound?
A: The inhibition at 0.95 µM was 50%.

Q: What about the Activity [23] of the same compound?
A: The Activity was “inactive”.

Q: And the inhibition at 5 µM [24]?
A: Its inhibition at 5 µM is 80%.

Q: What about the IC50 [25] of the same compound?
A: The IC50 was 38 nM.

Q: What about the half-life [26] of the same compound?
A: Its half-life is > 240 min.

Q: And the Activity [27]?
A: Its Activity is “Active”.

Q: What about the inhibition at 1.25 µM [28] of the same compound?
A: The inhibition at 1.25 µM was 20%.

Q: What about the EC50 [29] of the same compound?
A: The EC50 was 4.7 µM.

Q: And the EC50 [30]?
A: The EC50 was 4.2 µM.

Q: What about the EC50 [31] of the same compound?
A: The EC50 was 4.2 µM.

Q: What about the Activity [32] of the same compound?
A: Its Activity is “Active”.

Q: What about the EC50 [33] of the same compound?
A: Its EC50 is 2800 nM.

Q: What about the CC50 [34] of the same compound?
A: The CC50 was > 10 µM.

Q: What about the microsomal CLint [35] of the same compound?
A: The microsomal CLint was 27 µL/min/mg.
